System: cutis and subcutis
Assay: In vivo clinical studies II, Q-BASE-CREAM, regeneration and repairing of cutis and subcutis
Design: species or system human
Conditions: Case 2, surgical suture dehiscence; before Q-BASE-CREAM
Protocol: A clinical study was performed, which was designed to assess the therapeutic effectiveness of the product designated as Q-BASE-CREAM in the regeneration and repairing of cutis and subcutis.
During the period comprised from March to May 2007, a mixed group of volunteers consisting of human (two women and one person) and veterinary (two dogs) patients were included in the clinical study.

Substance: povidone-iodine
- change of the lesion after 7 days of previous local therapy: no changes in the lesion occurred

Reference: US20100310544A1, “COMPOSITION COMPRISING CALCIUM IONS AND AT LEAST ONE PROTEOLYTIC ENZYME FOR USE IN THE IN VITRO AND IN VIVO REGENERATION OF CUTANEOUS AND CONNECTIVE TISSUES” (MEDEVICE S.P.A., priority 2007, published 2010)
